In PubChem BioAssay AID248 (DTP/NCI, 2004):
“And” between values parts separate entries of the source, which are not always exact repeats. Identical values can stand only once. Toxic doses and inconclusive results are not listed. No stated cut-off is given here; in the data, active means T/C of 150% or more; inactive means T/C below 125%.

Tested on: L1210 leukemia ip in BDF1 mice, survival T/C
Assay: NCI In Vivo Anticancer Drug Screen. Data for tumor model L1210 Leukemia (intraperitoneal) in B6D2F1 (BDF1) mice
Settings: endpoint: mean survival time, higher = longer survival
Method in brief: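 Transplantable tumor model; survival measured in treated vs vehicle control mice. Value = treated/control.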

[1] = dose: 25.0 mg/kg/injection, schedule: Q04DX003 (ip), vehicle: saline
[2] = dose: 50.0 mg/kg/injection, schedule: Q04DX003 (ip), vehicle: saline
[3] = dose: 100.0 mg/kg/injection, schedule: Q01DX009 (ip), vehicle: saline
[4] = dose: 100.0 mg/kg/injection, schedule: Q04DX003 (ip), vehicle: saline
[5] = dose: 100.0 mg/kg/injection, schedule: Q01DX001 (ip), vehicle: saline
[6] = dose: 200.0 mg/kg/injection, schedule: Q01DX001 (ip), vehicle: saline
[7] = dose: 200.0 mg/kg/injection, schedule: Q01DX009 (ip), vehicle: saline
[8] = dose: 200.0 mg/kg/injection, schedule: Q04DX003 (ip), vehicle: saline
[9] = dose: 400.0 mg/kg/injection, schedule: Q01DX001 (ip), vehicle: saline
[10] = dose: 400.0 mg/kg/injection, schedule: Q01DX009 (ip), vehicle: saline
[11] = dose: 400.0 mg/kg/injection, schedule: Q04DX003 (ip), vehicle: saline
[12] = dose: 100.0 mg/kg/injection, schedule: Q01DX009 (ip), vehicle: Klucel (hydroxypropylcellulose) (HPC)
[13] = dose: 100.0 mg/kg/injection, schedule: Q01DX009 (ip), vehicle: saline with Tween-80
[14] = dose: 100.0 mg/kg/injection, schedule: Q04DX003 (ip), vehicle: Klucel (hydroxypropylcellulose) (HPC)
[15] = dose: 200.0 mg/kg/injection, schedule: Q01DX009 (ip), vehicle: saline with Tween-80
[16] = dose: 200.0 mg/kg/injection, schedule: Q04DX003 (ip), vehicle: Klucel (hydroxypropylcellulose) (HPC)
[17] = dose: 400.0 mg/kg/injection, schedule: Q01DX009 (ip), vehicle: saline with Tween-80
[18] = dose: 400.0 mg/kg/injection, schedule: Q04DX003 (ip), vehicle: Klucel (hydroxypropylcellulose) (HPC)
[19] = dose: 100.0 mg/kg/injection, schedule: Q01DX009 (sc), vehicle: olive oil, sesame oil, peanut oil
[20] = dose: 100.0 mg/kg/injection, schedule: Q04DX003 (sc), vehicle: olive oil, sesame oil, peanut oil
[21] = dose: 200.0 mg/kg/injection, schedule: Q01DX009 (sc), vehicle: olive oil, sesame oil, peanut oil
[22] = dose: 200.0 mg/kg/injection, schedule: Q04DX003 (sc), vehicle: olive oil, sesame oil, peanut oil

Measured: T/C

CC(C)NC(=O)CCl
inactive: dose: 25.0 mg/kg/injection, schedule: Q01DX009 (ip), vehicle: saline 96 % of control | [1] 90 % of control | dose: 50.0 mg/kg/injection, schedule: Q01DX009 (ip), vehicle: saline 91 % of control | [2] 92 % of control | [3] 98 % of control | [4] 102 % of control and 92 % of control

CC(NC(=O)OCc1ccccc1)C(=O)ON1C(=O)CCC1=O (centres undefined)
inactive: [5] 97 % of control | [3] 95 % of control | [4] 96 % of control | [6] 102 % of control | [7] 93 % of control | [8] 94 % of control | [9] 97 % of control | [10] 88 % of control | [11] 96 % of control

C=CC(=O)N1CCN(C(=O)C=C)CC1 (tested in a mixture with another compound)
inactive: dose: 0.04 mg/kg/injection, schedule: Q04DX002 (ip), vehicle: saline 101 % of control | dose: 0.09 mg/kg/injection, schedule: Q04DX002 (ip), vehicle: saline 97 % of control | dose: 0.18 mg/kg/injection, schedule: Q04DX002 (ip), vehicle: saline 97 % of control and 100 % of control | dose: 0.75 mg/kg/injection, schedule: Q04DX002 (ip), vehicle: saline 109 % of control | dose: 1.5 mg/kg/injection, schedule: Q04DX002 (ip), vehicle: saline 103 % of control | dose: 3.12 mg/kg/injection, schedule: Q04DX002 (ip), vehicle: saline 106 % of control | dose: 6.25 mg/kg/injection, schedule: Q04DX002 (ip), vehicle: saline + alcohol 97 % of control | dose: 6.25 mg/kg/injection, schedule: Q04DX002 (ip), vehicle: saline 103 % of control | dose: 12.5 mg/kg/injection, schedule: Q04DX002 (ip), vehicle: saline + alcohol 101 % of control | dose: 12.5 mg/kg/injection, schedule: Q04DX002 (ip), vehicle: saline with Tween-80 94 % of control | dose: 12.5 mg/kg/injection, schedule: Q04DX002 (ip), vehicle: saline 103 % of control | dose: 25.0 mg/kg/injection, schedule: Q04DX002 (ip), vehicle: saline + alcohol 104 % of control and 89 % of control | dose: 25.0 mg/kg/injection, schedule: Q04DX002 (ip), vehicle: saline with Tween-80 109 % of control | dose: 50.0 mg/kg/injection, schedule: Q04DX002 (ip), vehicle: saline + alcohol 92 % of control | dose: 50.0 mg/kg/injection, schedule: Q04DX002 (ip), vehicle: saline with Tween-80 91 % of control | dose: 50.0 mg/kg/injection, schedule: Q04DX002 (ip), vehicle: saline 96 % of control and 105 % of control | dose: 100.0 mg/kg/injection, schedule: Q04DX002 (ip), vehicle: saline + alcohol 100 % of control | dose: 100.0 mg/kg/injection, schedule: Q04DX002 (ip), vehicle: saline 100 % of control and 97 % of control and 105 % of control | dose: 200.0 mg/kg/injection, schedule: Q04DX002 (ip), vehicle: saline 97 % of control and 90 % of control | dose: 400.0 mg/kg/injection, schedule: Q04DX002 (ip), vehicle: saline 90 % of control

CCOC(=O)/C=C(C)/C=C/C1=C(C)CCCC1(C)C
inactive: dose: 100.0 mg/kg/injection, schedule: Q04DX003 (ip), vehicle: saline with Tween-80 102 % of control | dose: 200.0 mg/kg/injection, schedule: Q04DX003 (ip), vehicle: saline with Tween-80 96 % of control | dose: 400.0 mg/kg/injection, schedule: Q04DX003 (ip), vehicle: saline with Tween-80 108 % of control

CN1CSCC1C(=O)O (centres undefined)
inactive: [4] 94 % of control | [8] 96 % of control

COc1ccc(C(=O)N/N=C/c2c(Cl)cccc2Cl)cc1
inactive: dose: 25.0 mg/kg/injection, schedule: Q01DX009 (ip), vehicle: Klucel (hydroxypropylcellulose) (HPC) 92 % of control | dose: 50.0 mg/kg/injection, schedule: Q01DX009 (ip), vehicle: Klucel (hydroxypropylcellulose) (HPC) 90 % of control | [12] 93 % of control and 104 % of control

Cc1ccc(S(=O)(=O)Oc2cc(C)ccc2C)cc1
inactive: [13] 100 % of control | [14] 97 % of control | [15] 93 % of control | [16] 92 % of control | [17] 101 % of control | [18] 91 % of control

Cc1ccc(NC(=O)c2ccc(C)c([N+](=O)[O-])c2)c(C)c1
inactive: [19] 86 % of control | [20] 100 % of control | [21] 94 % of control | [22] 105 % of control | dose: 400.0 mg/kg/injection, schedule: Q01DX009 (sc), vehicle: olive oil, sesame oil, peanut oil 89 % of control | dose: 400.0 mg/kg/injection, schedule: Q04DX003 (sc), vehicle: olive oil, sesame oil, peanut oil 97 % of control

CNC(=O)C(c1ccccc1)C(O)c1ccccc1 (centres undefined)
inactive: dose: 50.0 mg/kg/injection, schedule: Q01DX001 (ip), vehicle: saline 103 % of control | [5] 101 % of control | [6] 103 % of control

O=S1(=O)CC(c2cccc3ccccc23)Nc2ccccc21 (centres undefined)
inactive: dose: 100.0 mg/kg/injection, schedule: Q01DX001 (ip), vehicle: Klucel (hydroxypropylcellulose) (HPC) 97 % of control | [12] 95 % of control | [14] 95 % of control | dose: 200.0 mg/kg/injection, schedule: Q01DX001 (ip), vehicle: Klucel (hydroxypropylcellulose) (HPC) 93 % of control | dose: 200.0 mg/kg/injection, schedule: Q01DX009 (ip), vehicle: Klucel (hydroxypropylcellulose) (HPC) 95 % of control | [16] 90 % of control | dose: 400.0 mg/kg/injection, schedule: Q01DX001 (ip), vehicle: Klucel (hydroxypropylcellulose) (HPC) 89 % of control | dose: 400.0 mg/kg/injection, schedule: Q01DX009 (ip), vehicle: Klucel (hydroxypropylcellulose) (HPC) 94 % of control | [18] 97 % of control

CC(=O)Nc1ccc(NC(=O)c2ccc(C(=O)Nc3ccc(NC(C)=O)cc3)cc2)cc1
inactive: dose: 100.0 mg/kg/injection, schedule: Q01DX001 (ip), vehicle: other 98 % of control | dose: 200.0 mg/kg/injection, schedule: Q01DX001 (ip), vehicle: other 93 % of control | dose: 400.0 mg/kg/injection, schedule: Q01DX001 (ip), vehicle: other 96 % of control

N#CN1CC(C(=O)N2CCCCC2)C=C2c3cccc4[nH]cc(c34)CC21 (centres undefined)
inactive: dose: 4.0 mg/kg/injection, schedule: Q04DX003 (ip), vehicle: saline 96 % of control | dose: 6.25 mg/kg/injection, schedule: Q04DX003 (ip), vehicle: saline 119 % of control | dose: 8.0 mg/kg/injection, schedule: Q04DX003 (ip), vehicle: saline 95 % of control | dose: 12.5 mg/kg/injection, schedule: Q04DX003 (ip), vehicle: saline 118 % of control | dose: 16.0 mg/kg/injection, schedule: Q04DX003 (ip), vehicle: saline 86 % of control | [1] 115 % of control | [2] 90 % of control

O=S(=O)(O)CBr
inactive: [5] 107 % of control | [3] 91 % of control | [4] 100 % of control | [6] 106 % of control | [7] 96 % of control | [8] 100 % of control | [9] 109 % of control | [10] 98 % of control | [11] 106 % of control

c1ccc2c(c1)NC(c1cccc3ccccc13)S2 (centres undefined)
inactive: [5] 94 % of control | [6] 100 % of control | [9] 94 % of control

C=CCc1c(C)cc(C)c(C)c1O
inactive: dose: 50.0 mg/kg/injection, schedule: Q01DX009 (sc), vehicle: olive oil, sesame oil, peanut oil 105 % of control | dose: 50.0 mg/kg/injection, schedule: Q04DX003 (sc), vehicle: olive oil, sesame oil, peanut oil 113 % of control | [19] 105 % of control | [20] 106 % of control | [21] 104 % of control | [22] 101 % of control

CC1=C/C(=N\N2CCCCCC2)C(C(O)(C(F)(F)F)C(F)(F)F)C(C)(C)C1 (centres undefined)
inactive: dose: 50.0 mg/kg/injection, schedule: Q01DX009 (ip), vehicle: saline with Tween-80 90 % of control | [13] 96 % of control | [15] 86 % of control | [17] 88 % of control
